Measurements reported in ChEMBL document CHEMBL1143107 (Bioorg Med Chem, 2008).

How the values were obtained:
[1] = target: T1, Prostaglandin G/H synthase 2 (Homo sapiens, UniProt P35354)
T1 sequence (P35354 whole entry): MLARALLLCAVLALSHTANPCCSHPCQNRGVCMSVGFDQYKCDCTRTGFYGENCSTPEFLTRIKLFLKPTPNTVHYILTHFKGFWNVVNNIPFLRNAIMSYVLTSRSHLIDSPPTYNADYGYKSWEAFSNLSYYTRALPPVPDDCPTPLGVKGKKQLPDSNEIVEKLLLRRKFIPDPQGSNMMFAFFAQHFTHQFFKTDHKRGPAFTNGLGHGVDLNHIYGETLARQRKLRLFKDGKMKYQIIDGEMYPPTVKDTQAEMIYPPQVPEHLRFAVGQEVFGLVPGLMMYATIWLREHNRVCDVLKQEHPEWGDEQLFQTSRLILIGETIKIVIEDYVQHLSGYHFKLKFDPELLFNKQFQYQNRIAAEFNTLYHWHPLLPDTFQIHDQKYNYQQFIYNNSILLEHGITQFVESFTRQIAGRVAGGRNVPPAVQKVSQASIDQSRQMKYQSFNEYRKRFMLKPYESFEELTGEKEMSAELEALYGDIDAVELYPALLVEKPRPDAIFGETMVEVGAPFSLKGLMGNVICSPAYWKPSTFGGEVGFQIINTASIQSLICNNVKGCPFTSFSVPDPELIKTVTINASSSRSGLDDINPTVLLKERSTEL

[2] = target: T1, Prostaglandin G/H synthase 2; remark: listed apart in the source
Description: Inhibition of human COX2 in human whole blood

Homo sapiens [3] = organism: Homo sapiens; assay: Ratio of IC50 for human COX1 to IC50 for human COX2
Homo sapiens [4] = organism: Homo sapiens; assay: Ratio of IC50 for human COX1 to IC50 for human COX2 in human whole blood; assay type: tissue-based

Row | SMILES | IC50 [1] | IC50 [2] | Ratio IC50 (Homo sapiens [3]) | Ratio IC50 (Homo sapiens [4])
1 | CS(=O)(=O)c1ccc(-c2nc(NCc3cccnc3)cc(C(F)(F)F)n2)cc1 | > 10000 nM | > 10000 nM | > 1 | > 1
2 | CS(=O)(=O)c1ccc(-c2nc(NCC3CCCC3)cc(C(F)(F)F)n2)cc1 | > 10000 nM | > 10000 nM | > 1 | > 1
3 | CS(=O)(=O)c1ccc(-c2nc(NC3CCCC3)cc(C(F)(F)F)n2)cc1 | 192 nM | 476 nM | > 522 | 80
4 | NS(=O)(=O)c1ccc(-c2nc(NCc3cc4ccccc4s3)cc(C(F)(F)F)n2)cc1 | 15.2 nM | 140 nM | 6570 | > 71
5 | NS(=O)(=O)c1ccc(-c2nc(NCC3CCCCC3)cc(C(F)(F)F)n2)cc1 | 712 nM | 803 nM | > 140 | > 124
6 | CS(=O)(=O)c1ccc(-c2nc(NCc3ccco3)cc(C(F)(F)F)n2)cc1 | 201 nM | 140 nM | > 498 | > 497
7 | Cn1cccc1CNc1cc(C(F)(F)F)nc(-c2ccc(S(C)(=O)=O)cc2)n1 | 178 nM | 28.8 nM | > 562 | > 3470
